Experimental data taken from ChEMBL document CHEMBL5291721, “A preclinical secondary pharmacology resource illuminates target-adverse drug reaction associations of marketed drugs” (Nat Commun, 2023).

Experiments:
[1] = target: T1, Alpha-2A adrenergic receptor (Homo sapiens, UniProt P08913); type: functional, cell-based
T1 sequence (P08913 whole entry): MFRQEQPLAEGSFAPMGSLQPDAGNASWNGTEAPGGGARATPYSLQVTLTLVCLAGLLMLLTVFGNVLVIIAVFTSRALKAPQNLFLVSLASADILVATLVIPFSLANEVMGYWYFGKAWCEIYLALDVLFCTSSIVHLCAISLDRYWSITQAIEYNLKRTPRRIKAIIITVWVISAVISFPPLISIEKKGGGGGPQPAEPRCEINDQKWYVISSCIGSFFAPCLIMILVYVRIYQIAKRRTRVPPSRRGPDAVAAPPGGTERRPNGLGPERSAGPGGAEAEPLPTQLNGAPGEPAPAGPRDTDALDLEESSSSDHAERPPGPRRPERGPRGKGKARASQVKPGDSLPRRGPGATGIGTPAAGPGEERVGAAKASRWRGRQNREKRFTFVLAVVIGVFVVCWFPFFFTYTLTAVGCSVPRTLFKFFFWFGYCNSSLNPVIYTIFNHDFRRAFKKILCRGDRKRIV

[2] = target: Beta-2 adrenergic receptor (Homo sapiens, UniProt P07550)
Chain of Beta-2 adrenergic receptor (P07550 whole entry): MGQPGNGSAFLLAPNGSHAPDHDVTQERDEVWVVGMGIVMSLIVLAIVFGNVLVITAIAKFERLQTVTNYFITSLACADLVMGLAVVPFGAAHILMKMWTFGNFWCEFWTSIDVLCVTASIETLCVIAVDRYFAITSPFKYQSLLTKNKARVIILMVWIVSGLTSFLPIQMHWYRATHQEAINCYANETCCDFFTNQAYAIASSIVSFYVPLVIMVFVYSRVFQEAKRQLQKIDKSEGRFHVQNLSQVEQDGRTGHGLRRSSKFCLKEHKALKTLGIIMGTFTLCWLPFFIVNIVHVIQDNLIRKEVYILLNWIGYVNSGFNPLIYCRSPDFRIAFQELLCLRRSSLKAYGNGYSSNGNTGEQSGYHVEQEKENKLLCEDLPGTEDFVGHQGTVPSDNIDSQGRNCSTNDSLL

Estrogen receptor = target: T2, Estrogen receptor (Homo sapiens, UniProt P03372)
T2 sequence (P03372 whole entry): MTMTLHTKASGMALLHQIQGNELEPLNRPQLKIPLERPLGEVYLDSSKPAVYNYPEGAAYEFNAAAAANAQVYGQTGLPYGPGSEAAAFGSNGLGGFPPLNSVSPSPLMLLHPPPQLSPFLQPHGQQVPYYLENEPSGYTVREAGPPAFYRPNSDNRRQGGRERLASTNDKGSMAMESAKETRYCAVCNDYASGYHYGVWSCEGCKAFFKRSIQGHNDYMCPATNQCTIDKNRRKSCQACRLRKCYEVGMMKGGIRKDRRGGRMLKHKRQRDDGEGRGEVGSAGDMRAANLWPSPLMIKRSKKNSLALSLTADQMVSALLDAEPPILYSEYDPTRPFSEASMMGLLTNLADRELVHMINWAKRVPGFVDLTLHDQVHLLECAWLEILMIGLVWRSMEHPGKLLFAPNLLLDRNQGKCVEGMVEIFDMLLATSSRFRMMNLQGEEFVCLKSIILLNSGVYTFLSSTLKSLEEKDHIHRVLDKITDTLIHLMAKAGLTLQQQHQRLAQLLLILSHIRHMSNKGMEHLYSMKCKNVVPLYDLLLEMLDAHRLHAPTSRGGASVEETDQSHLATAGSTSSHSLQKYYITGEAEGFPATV

[3] = target: T3, 5-hydroxytryptamine receptor 1A (Homo sapiens, UniProt P08908); type: functional, cell-based
T3 sequence (P08908 whole entry): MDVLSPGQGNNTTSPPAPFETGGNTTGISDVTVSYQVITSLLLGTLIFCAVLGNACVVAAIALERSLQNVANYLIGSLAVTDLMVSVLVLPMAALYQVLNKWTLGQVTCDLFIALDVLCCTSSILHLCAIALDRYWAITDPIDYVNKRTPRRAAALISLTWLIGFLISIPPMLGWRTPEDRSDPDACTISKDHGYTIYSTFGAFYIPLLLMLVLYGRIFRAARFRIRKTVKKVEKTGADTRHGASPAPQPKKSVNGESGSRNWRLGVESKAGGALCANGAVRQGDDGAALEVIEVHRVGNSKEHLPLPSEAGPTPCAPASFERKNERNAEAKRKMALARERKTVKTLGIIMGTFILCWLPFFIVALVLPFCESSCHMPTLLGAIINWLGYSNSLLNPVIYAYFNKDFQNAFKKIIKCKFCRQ

[4] = target: Vascular endothelial growth factor receptor 2 (Homo sapiens, UniProt P35968); type: functional
Chain of Vascular endothelial growth factor receptor 2 (P35968 whole entry): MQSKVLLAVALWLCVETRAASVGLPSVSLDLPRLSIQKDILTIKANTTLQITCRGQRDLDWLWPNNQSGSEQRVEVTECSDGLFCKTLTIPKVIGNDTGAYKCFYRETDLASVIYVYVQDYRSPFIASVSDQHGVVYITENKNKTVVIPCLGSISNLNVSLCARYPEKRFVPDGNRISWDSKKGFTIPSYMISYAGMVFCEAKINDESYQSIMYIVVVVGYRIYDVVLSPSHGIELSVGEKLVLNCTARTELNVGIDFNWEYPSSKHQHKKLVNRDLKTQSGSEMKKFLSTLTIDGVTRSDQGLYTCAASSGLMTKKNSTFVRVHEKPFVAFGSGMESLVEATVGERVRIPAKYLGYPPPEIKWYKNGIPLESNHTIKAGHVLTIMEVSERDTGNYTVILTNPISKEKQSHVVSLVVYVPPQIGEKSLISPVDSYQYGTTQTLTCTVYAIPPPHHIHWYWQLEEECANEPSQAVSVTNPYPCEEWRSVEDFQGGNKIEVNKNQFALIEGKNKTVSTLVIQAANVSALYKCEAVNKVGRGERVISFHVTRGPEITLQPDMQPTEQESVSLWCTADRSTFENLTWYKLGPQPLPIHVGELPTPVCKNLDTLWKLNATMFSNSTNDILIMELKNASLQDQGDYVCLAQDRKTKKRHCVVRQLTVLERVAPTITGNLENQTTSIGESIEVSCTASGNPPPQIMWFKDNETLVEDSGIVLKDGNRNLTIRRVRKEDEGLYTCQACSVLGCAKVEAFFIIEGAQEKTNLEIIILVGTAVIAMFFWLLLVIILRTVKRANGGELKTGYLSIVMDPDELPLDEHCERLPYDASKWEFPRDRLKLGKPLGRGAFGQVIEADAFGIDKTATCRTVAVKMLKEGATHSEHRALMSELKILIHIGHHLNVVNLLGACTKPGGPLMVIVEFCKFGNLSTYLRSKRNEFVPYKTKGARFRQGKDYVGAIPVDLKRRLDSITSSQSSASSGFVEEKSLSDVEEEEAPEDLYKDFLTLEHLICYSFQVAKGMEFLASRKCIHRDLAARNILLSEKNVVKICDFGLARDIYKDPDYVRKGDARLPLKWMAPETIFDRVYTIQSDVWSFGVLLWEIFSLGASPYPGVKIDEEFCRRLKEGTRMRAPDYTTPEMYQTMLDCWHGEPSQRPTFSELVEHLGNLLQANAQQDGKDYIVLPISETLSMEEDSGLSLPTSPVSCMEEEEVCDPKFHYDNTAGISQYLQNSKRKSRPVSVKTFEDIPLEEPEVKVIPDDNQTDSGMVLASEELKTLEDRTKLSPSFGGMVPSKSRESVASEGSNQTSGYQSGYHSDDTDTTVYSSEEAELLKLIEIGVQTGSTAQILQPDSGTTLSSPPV

[5] = target: T4, Amine oxidase [flavin-containing] A (Homo sapiens, UniProt P21397); type: functional
T4 sequence (P21397 whole entry): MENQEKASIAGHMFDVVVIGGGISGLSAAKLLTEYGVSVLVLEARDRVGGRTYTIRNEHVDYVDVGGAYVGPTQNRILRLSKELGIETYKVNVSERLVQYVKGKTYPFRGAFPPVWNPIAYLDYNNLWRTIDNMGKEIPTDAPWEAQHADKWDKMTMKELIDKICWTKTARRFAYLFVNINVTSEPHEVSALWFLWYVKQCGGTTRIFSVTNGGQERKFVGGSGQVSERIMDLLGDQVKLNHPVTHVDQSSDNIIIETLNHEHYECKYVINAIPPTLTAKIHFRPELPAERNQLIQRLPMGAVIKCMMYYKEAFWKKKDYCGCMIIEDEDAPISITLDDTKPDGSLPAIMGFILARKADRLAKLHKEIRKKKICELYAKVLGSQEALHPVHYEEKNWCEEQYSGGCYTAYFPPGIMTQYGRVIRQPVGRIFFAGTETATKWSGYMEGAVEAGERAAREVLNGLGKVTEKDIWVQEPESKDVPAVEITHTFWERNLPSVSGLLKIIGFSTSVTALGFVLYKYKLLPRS
Also: assay procedure not described here.

Q: For `O=C(O)COCCN1CCN(C(c2ccccc2)c2ccc(Cl)cc2)CC1` (stereo not given) [CETIRIZINE], which AC50 [1] is on record?
A: > 10 µM

Q: What about the AC50 [2] of the same compound?
A: > 10 µM

Q: And the AC50 (Estrogen receptor)?
A: > 30 µM

Q: What about the AC50 [3] of the same compound?
A: > 10 µM

Q: What about the AC50 [4] of the same compound?
A: > 30 µM

Q: And the AC50 [5]?
A: > 10 µM

Q: Which AC50 (Estrogen receptor) does the source give for `CC1(CCN2CCCCC2)C(=O)CCc2ccccc21` (stereo not given) [NEPINALONE] here?
A: > 30 µM

Q: And the AC50 [4]?
A: > 30 µM

Q: Which AC50 (Estrogen receptor) does the source give for `CC[N+](C)(CC)CCOC(=O)C(O)(c1ccccc1)C1CCCCC1` (stereo not given) [OXYPHENONIUM] here?
A: > 30 µM

Q: What about the AC50 [4] of the same compound?
A: > 30 µM

Q: Which AC50 (Estrogen receptor) does the source give for `C[C@@H]1C[C@H]2[C@@H]3C[C@H](F)C4=CC(=O)C=C[C@]4(C)[C@H]3[C@@H](O)C[C@]2(C)[C@@]1(O)C(=O)CO` [PARAMETHASONE] here?
A: > 30 µM

Q: And the AC50 [4]?
A: > 30 µM

Q: Which results are given for `CCC[C@H](N[C@@H](C)C(=O)N1[C@H](C(=O)O)C[C@@H]2CCCC[C@@H]21)C(=O)OCC` [PERINDOPRIL]?
A: AC50 (Estrogen receptor): > 30 µM; AC50 [4]: > 30 µM

Q: `NNCCc1ccccc1` [PHENELZINE] was tested. Which AC50 (Estrogen receptor) did it give?
A: > 30 µM

Q: And the AC50 [4]?
A: > 30 µM

Q: For `N[C@@H](Cc1ccccc1)C(=O)O` [PHENYLALANINE], which AC50 (Estrogen receptor) is on record?
A: > 30 µM

Q: What about the AC50 [4] of the same compound?
A: > 30 µM

Q: For `CCCn1cnc2c1c(=O)n(CCCCC(C)=O)c(=O)n2C` [PROPENTOFYLLINE], which AC50 (Estrogen receptor) is on record?
A: 28.9 µM

Q: What about the AC50 [4] of the same compound?
A: > 30 µM

Q: For `Clc1ccc(C(Cn2ccnc2)OCc2csc3c(Cl)cccc23)c(Cl)c1` (stereo not given) [SERTACONAZOLE], which AC50 (Estrogen receptor) is on record?
A: > 30 µM

Q: What about the AC50 [4] of the same compound?
A: > 30 µM

Q: Which AC50 (Estrogen receptor) does the source give for `CC(OCCN1CCCCCC1)(c1ccccc1)c1ccc(Cl)cc1` (stereo not given) [SETASTINE] here?
A: > 30 µM

Q: And the AC50 [4]?
A: > 30 µM

Q: `CCCSc1nc(N[C@@H]2C[C@H]2c2ccc(F)c(F)c2)c2nnn([C@@H]3C[C@H](OCCO)[C@@H](O)[C@H]3O)c2n1` [TICAGRELOR] was tested. Which AC50 (Estrogen receptor) did it give?
A: > 30 µM

Q: What about the AC50 [4] of the same compound?
A: > 30 µM

Q: Which results are given for `c1ccc2c(SC3=NCCN3)c[nH]c2c1` [TINAZOLINE]?
A: AC50 (Estrogen receptor): > 30 µM; AC50 [4]: > 30 µM

Q: For `Cc1ccc(C(=O)C(C)CN2CCCCC2)cc1` (stereo not given) [TOLPERISONE], which AC50 (Estrogen receptor) is on record?
A: > 30 µM

Q: What about the AC50 [4] of the same compound?
A: > 30 µM
